This assay relates to GBM6 intra-cerebral tumors. The assay can be described thus: Survival of mice with orthotopic GBM6 tumors after intratumoral virus infusion. The assay is classed as in vivo, athymic mice. The following applies: virus 1×10^8 pfu intratumoral day 7; SAHA 25 mg/kg QD PO for 5 days. As to the method:
FIG. 24. SAHA enhances MDA-7/IL-24 toxicity in vivo. GBM6 cells (0.5×10^6) were implanted into the brains of athymic mice. Seven days later tumors were infused with 1×10^8 pfu of either Ad.5/3-cmv or Ad.5/3-mda-7. Twenty-four h after virus infusion animals were treated with vehicle diluent (cremophore, PO) or vorinostat (SAHA, 25 mg/kg QD, PO) for 5 days. Animal survival was monitored on a daily basis (n=2, 8 animals total).
FIG. 25A-E. Ad.5/3-PEG-E1A-mda-7 (Ad.5/3-CTV; Ad.5/3-CTV-M7) prolongs animal survival in a dose-dependent fashion and does so to a greater extent than Ad.5/3- mda-7. Panel A. GBM6-luciferase cells (0.5 ×10^6) were implanted into the brains of athymic mice. Seven days later tumors were infused with 1×10^8 pfu of either: Ad.5/3-cmv: Ad.5/3-mda-7; Ad.5/3-PEG-E1A; or Ad.5/3-PEG-E1A-mda-7 (Ad.5/3-CTV; Ad.5/3-CTV-M7). On the days indicated in the graph animals were injected with luciferin (150 mg/kg) and were imaged 15 min later following placement into an IVIS Xenogen imager. […] Animal survival was monitored on a daily basis (n=2, 6 animals total) ((a) p<0.04 greater survival than Ad.5/3-cmv; (b) p<0.0008 greater survival than Ad.5/3-cmv; (c) p<0.04 greater survival than Ad.5/3-mda-7; (d) p<0.004 greater survival than Ad.5/3-mda-7; (e) p<0.0008 greater survival than Ad.5/3-PEG-E1A-mda-7 (Ad.5/3-CTV; Ad.5/3-CTV-M7) at a dose of 3×10^8 pfu). […]

Each structure is given as a SMILES string.

With `O=C(CCCCCCC(=O)Nc1ccccc1)NO` [SAHA], the animal survival result is on record as “did not significantly enhance animal survival”.

The record behind these values is patent publication US10314870B2, “Tropism modified cancer terminator virus (Ad.5/3 CTV;AD.5/3-CTV-M7)” (priority 2012, dated 2019).
